{"source": "ChEMBL document CHEMBL1134954", "about": "“Synthesis and preliminary evaluation of trans-3,4-conformationally-restricted glutamate and pyroglutamate analogues as novel EAAT2 inhibitors” (2002)", "assay_type_in_all_cases": "functional", "set-up_in_all_cases": "scale not given: the % may be the effect or the level left", "key": {"[1]": {"experiment": "Potential inhibitory activity of EAAT3 by the ability (500 uM) to attenuate the Na-dependent uptake of [3H]D-aspartate (25 uM) into C6 rat glioma cells"}, "SNB-19": {"tested_on": "SNB-19", "experiment": "Inhibitory activity (500 uM) against Cl-dependent uptake of [3H]L-glutamate (100 uM) into SNB-19 human astrocytoma cells to determine activity at system Xc glutamate/cystine exchanger"}, "Rattus norvegicus [2]": {"species_on_record": "Rattus norvegicus", "experiment": "Inhibitory activity (250 uM) against ATP dependent uptake of [3H]L-glutamate (250 uM) by isolated synaptic vesicles from rat forebrain to quantify activity at vesicular glutamate transporter"}, "Rattus norvegicus [3]": {"species_on_record": "Rattus norvegicus", "experiment": "Potential inhibitory activity of EAAT2 by the ability (250 uM) to attenuate the Na-dependent uptake of [3H]D-aspartate (5 uM) into synaptosomes of rat forebrain", "conditions": "Brain"}}, "data": [{"smiles": "O=C(O)C1NC(=O)[C@@H]2CC=CC[C@@H]12", "note": "(stereo partly specified)", "values": [{"measurement": "Activity", "setting": "[1]", "result": 93, "unit": "%"}, {"measurement": "Activity", "setting": "SNB-19", "result": 89, "unit": "%"}, {"measurement": "Activity", "setting": "Rattus norvegicus [2]", "result": 103, "unit": "%"}, {"measurement": "Activity", "setting": "Rattus norvegicus [3]", "result": 53, "unit": "%"}]}, {"smiles": "NC(C(=O)O)[C@@H]1C2C=CC(C2)[C@H]1C(=O)O", "note": "(stereo partly specified)", "values": [{"measurement": "Activity", "setting": "[1]", "result": 87, "unit": "%"}, {"measurement": "Activity", "setting": "SNB-19", "result": 88, "unit": "%"}, {"measurement": "Activity", "setting": "Rattus norvegicus [2]", "result": 93, "unit": "%"}, {"measurement": "Activity", "setting": "Rattus norvegicus [3]", "result": 35, "unit": "%"}]}, {"smiles": "NC(C(=O)O)[C@@H]1CC=CC[C@H]1C(=O)O", "note": "(stereo partly specified)", "values": [{"measurement": "Activity", "setting": "[1]", "result": 95, "unit": "%"}, {"measurement": "Activity", "setting": "SNB-19", "result": 101, "unit": "%"}, {"measurement": "Activity", "setting": "Rattus norvegicus [2]", "result": 85, "unit": "%"}, {"measurement": "Activity", "setting": "Rattus norvegicus [3]", "result": 38, "unit": "%"}]}, {"smiles": "N[C@@H](CCC(=O)O)C(=O)O", "values": [{"measurement": "Activity", "setting": "Rattus norvegicus [3]", "result": 28, "unit": "%"}]}, {"smiles": "CC1=C(C)C[C@@H](C(N)C(=O)O)[C@H](C(=O)O)C1", "note": "(stereo partly specified)", "values": [{"measurement": "Activity", "setting": "[1]", "result": 100, "unit": "%"}, {"measurement": "Activity", "setting": "SNB-19", "result": 104, "unit": "%"}, {"measurement": "Activity", "setting": "Rattus norvegicus [2]", "result": 99, "unit": "%"}, {"measurement": "Activity", "setting": "Rattus norvegicus [3]", "result": 71, "unit": "%"}]}, {"smiles": "CC1=C(C)C[C@H]2C(C(=O)O)NC(=O)[C@@H]2C1", "note": "(stereo partly specified)", "values": [{"measurement": "Activity", "setting": "[1]", "result": 97, "unit": "%"}, {"measurement": "Activity", "setting": "SNB-19", "result": 103, "unit": "%"}, {"measurement": "Activity", "setting": "Rattus norvegicus [2]", "result": 96, "unit": "%"}, {"measurement": "Activity", "setting": "Rattus norvegicus [3]", "result": 77, "unit": "%"}]}, {"smiles": "CC(C)[C@H]1CN[C@H](C(=O)O)[C@H]1CC(=O)O", "values": [{"measurement": "Activity", "setting": "Rattus norvegicus [3]", "result": 22, "unit": "%"}]}, {"smiles": "NC(C(=O)O)[C@@H]1C2C=CC(CC2)[C@H]1C(=O)O", "note": "(stereo partly specified)", "values": [{"measurement": "Activity", "setting": "[1]", "result": 97, "unit": "%"}, {"measurement": "Activity", "setting": "SNB-19", "result": 88, "unit": "%"}, {"measurement": "Activity", "setting": "Rattus norvegicus [2]", "result": 104, "unit": "%"}, {"measurement": "Activity", "setting": "Rattus norvegicus [3]", "result": 70, "unit": "%"}]}]}
